Test results as given in PubChem BioAssay (NCI).
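In this assay, cells in 96-well plates receive the compound at five concentrations for 48 hours. Endpoints are linearly interpolated between the surrounding concentrations. Abbreviation: GI50, concentration required for 50% inhibition of growth. TGI is the concentration that stops growth completely.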

Legend:
Experiment in all cases: NCI-60 cell line screen, 48 h
RPMI-8226 leukemia = system: RPMI-8226 leukemia
UACC-257 melanoma = system: UACC-257 melanoma
SF-295 CNS = system: SF-295 CNS
T-47D breast = system: T-47D breast
MOLT-4 leukemia = system: MOLT-4 leukemia
HCC-2998 colon = system: HCC-2998 colon
NCI-H23 lung = system: NCI-H23 lung
COLO 205 colon = system: COLO 205 colon
LOX IMVI melanoma = system: LOX IMVI melanoma
SN12C renal = system: SN12C renal
U251 CNS = system: U251 CNS
K-562 leukemia = system: K-562 leukemia
A498 renal = system: A498 renal
MALME-3M melanoma = system: MALME-3M melanoma
SNB-75 CNS = system: SNB-75 CNS
RXF 393 renal = system: RXF 393 renal
SW-620 colon = system: SW-620 colon
CAKI-1 renal = system: CAKI-1 renal
SNB-19 CNS = system: SNB-19 CNS
PC-3 prostate = system: PC-3 prostate
EKVX NSCLC = system: EKVX NSCLC
786-0 renal = system: 786-0 renal
TK-10 renal = system: TK-10 renal
SF-539 CNS = system: SF-539 CNS
NCI-H226 lung = system: NCI-H226 lung
SF-268 CNS = system: SF-268 CNS
UO-31 renal = system: UO-31 renal
SK-MEL-2 melanoma = system: SK-MEL-2 melanoma
HS 578T breast = system: HS 578T breast
IGROV1 ovarian = system: IGROV1 ovarian
NCI-H522 lung = system: NCI-H522 lung
KM12 colon = system: KM12 colon
DU-145 prostate = system: DU-145 prostate
MDA-MB-231 breast = system: MDA-MB-231 breast
HOP-62 NSCLC = system: HOP-62 NSCLC
A549 NSCLC = system: A549 NSCLC
UACC-62 melanoma = system: UACC-62 melanoma
NCI-H460 lung = system: NCI-H460 lung
CCRF-CEM leukemia = system: CCRF-CEM leukemia
SR leukemia = system: SR leukemia
HCT-116 colon = system: HCT-116 colon
M14 melanoma = system: M14 melanoma
ACHN renal = system: ACHN renal
SK-OV-3 ovarian = system: SK-OV-3 ovarian
HL-60(TB) leukemia = system: HL-60(TB) leukemia
SK-MEL-28 melanoma = system: SK-MEL-28 melanoma
MDA-MB-435 = system: MDA-MB-435
MCF7 breast = system: MCF7 breast
NCI/ADR-RES ovarian = system: NCI/ADR-RES ovarian
SK-MEL-5 melanoma = system: SK-MEL-5 melanoma
OVCAR-5 ovarian = system: OVCAR-5 ovarian
HT29 colon = system: HT29 colon
OVCAR-4 ovarian = system: OVCAR-4 ovarian
HCT-15 colon = system: HCT-15 colon
OVCAR-8 ovarian = system: OVCAR-8 ovarian
HOP-92 NSCLC = system: HOP-92 NSCLC
OVCAR-3 ovarian = system: OVCAR-3 ovarian
BT-549 breast = system: BT-549 breast

For `C/C(=N/NC(N)=S)c1ccc(Nc2nc(SCC(C)C)nc(-c3ccc(F)cc3)c2C#N)cc1`, the GI50 (RPMI-8226 leukemia) was 3.26 µM, the TGI (RPMI-8226 leukemia) was 80.3 µM and the GI50 (UACC-257 melanoma) was 4.56 µM. For the same compound, the TGI (UACC-257 melanoma) was 30.1 µM, the GI50 (SF-295 CNS) was 0.598 µM and the TGI (SF-295 CNS) was 2.69 µM. For the same compound, the GI50 (T-47D breast) was 2.11 µM, the TGI (T-47D breast) was 29.8 µM and the GI50 (MOLT-4 leukemia) was 2.07 µM. For the same compound, the TGI (MOLT-4 leukemia) was 79.2 µM, the GI50 (HCC-2998 colon) was 5.69 µM and the TGI (HCC-2998 colon) was 31.4 µM. For the same compound, the GI50 (NCI-H23 lung) was 1.72 µM, the TGI (NCI-H23 lung) was 12 µM and the GI50 (COLO 205 colon) was 1.18 µM. The TGI (COLO 205 colon) was 22.1 µM, the GI50 (LOX IMVI melanoma) was 1.13 µM and the TGI (LOX IMVI melanoma) was 10.4 µM. For the same compound, the GI50 (SN12C renal) was 0.717 µM, the TGI (SN12C renal) was 14.1 µM and the GI50 (U251 CNS) was 0.77 µM. It also gave a TGI (U251 CNS) of 11 µM, a GI50 (K-562 leukemia) of 1.41 µM and a TGI (K-562 leukemia) greater than 100 µM. It also gave a GI50 (A498 renal) of 2.99 µM, a TGI (A498 renal) of 8.8 µM and a GI50 (MALME-3M melanoma) of 1.88 µM. The TGI (MALME-3M melanoma) was 11.6 µM, the GI50 (SNB-75 CNS) was 0.418 µM and the TGI (SNB-75 CNS) was 3.95 µM. For the same compound, the GI50 (RXF 393 renal) was 1.95 µM, the TGI (RXF 393 renal) was 7.16 µM and the GI50 (SW-620 colon) was 0.62 µM. For the same compound, the TGI (SW-620 colon) was greater than 100 µM, the GI50 (CAKI-1 renal) was 1.65 µM and the TGI (CAKI-1 renal) was 7.49 µM. The GI50 (SNB-19 CNS) was 9.08 µM, the TGI (SNB-19 CNS) was 22.4 µM and the GI50 (PC-3 prostate) was 0.59 µM. It also gave a TGI (PC-3 prostate) of 5.52 µM, a GI50 (EKVX NSCLC) of 4.53 µM and a TGI (EKVX NSCLC) of 25.4 µM. For the same compound, the GI50 (786-0 renal) was 2.07 µM, the TGI (786-0 renal) was 13.8 µM and the GI50 (TK-10 renal) was 3.56 µM. The TGI (TK-10 renal) was 18.9 µM, the GI50 (SF-539 CNS) was 2.01 µM and the TGI (SF-539 CNS) was 10.4 µM. For the same compound, the GI50 (NCI-H226 lung) was 1.46 µM, the TGI (NCI-H226 lung) was 14.1 µM and the GI50 (SF-268 CNS) was 10.9 µM. It also gave a TGI (SF-268 CNS) of 33.1 µM, a GI50 (UO-31 renal) of 2.75 µM and a TGI (UO-31 renal) of 15.4 µM. The GI50 (SK-MEL-2 melanoma) was 5.09 µM, the TGI (SK-MEL-2 melanoma) was 19 µM and the GI50 (HS 578T breast) was 3.08 µM. For the same compound, the TGI (HS 578T breast) was 54.1 µM, the GI50 (IGROV1 ovarian) was 4.82 µM and the TGI (IGROV1 ovarian) was 21.4 µM. For the same compound, the GI50 (NCI-H522 lung) was 2.59 µM, the TGI (NCI-H522 lung) was 13.1 µM and the GI50 (KM12 colon) was 12.7 µM. The TGI (KM12 colon) was greater than 100 µM, the GI50 (DU-145 prostate) was 1.55 µM and the TGI (DU-145 prostate) was 20.3 µM. The GI50 (MDA-MB-231 breast) was 5.91 µM, the TGI (MDA-MB-231 breast) was 25.9 µM and the GI50 (HOP-62 NSCLC) was 3.04 µM. It also gave a TGI (HOP-62 NSCLC) of 13.6 µM, a GI50 (A549 NSCLC) of 0.488 µM and a TGI (A549 NSCLC) of 10.9 µM. The GI50 (UACC-62 melanoma) was 1.66 µM, the TGI (UACC-62 melanoma) was 10.5 µM and the GI50 (NCI-H460 lung) was 0.414 µM. It also gave a TGI (NCI-H460 lung) of 10.3 µM, a GI50 (CCRF-CEM leukemia) of 5.83 µM and a TGI (CCRF-CEM leukemia) greater than 100 µM. For the same compound, the GI50 (SR leukemia) was 0.509 µM, the TGI (SR leukemia) was 18.9 µM and the GI50 (HCT-116 colon) was 0.539 µM. The TGI (HCT-116 colon) was 13.6 µM, the GI50 (M14 melanoma) was 4.41 µM and the TGI (M14 melanoma) was 26 µM. The GI50 (ACHN renal) was 0.423 µM, the TGI (ACHN renal) was 11.4 µM and the GI50 (SK-OV-3 ovarian) was 3.1 µM. It also gave a TGI (SK-OV-3 ovarian) of 13.7 µM, a GI50 (HL-60(TB) leukemia) of 17.9 µM and a TGI (HL-60(TB) leukemia) greater than 100 µM. It also gave a GI50 (SK-MEL-28 melanoma) of 2.76 µM, a TGI (SK-MEL-28 melanoma) of 13.4 µM and a GI50 (MDA-MB-435) of 2.14 µM. It also gave a TGI (MDA-MB-435) of 17.4 µM, a GI50 (MCF7 breast) of 0.696 µM and a TGI (MCF7 breast) of 28.8 µM. It also gave a GI50 (NCI/ADR-RES ovarian) of 1.89 µM, a TGI (NCI/ADR-RES ovarian) of 19.1 µM and a GI50 (SK-MEL-5 melanoma) of 2.74 µM. It also gave a TGI (SK-MEL-5 melanoma) of 15.6 µM, a GI50 (OVCAR-5 ovarian) of 6.94 µM and a TGI (OVCAR-5 ovarian) of 47.5 µM. The GI50 (HT29 colon) was 1.28 µM, the TGI (HT29 colon) was 15.6 µM and the GI50 (OVCAR-4 ovarian) was 0.329 µM. For the same compound, the TGI (OVCAR-4 ovarian) was 2.23 µM, the GI50 (HCT-15 colon) was 0.928 µM and the TGI (HCT-15 colon) was greater than 100 µM. The GI50 (OVCAR-8 ovarian) was 3.22 µM, the TGI (OVCAR-8 ovarian) was 26.4 µM and the GI50 (HOP-92 NSCLC) was 1.12 µM. The TGI (HOP-92 NSCLC) was 5.01 µM, the GI50 (OVCAR-3 ovarian) was 0.685 µM and the TGI (OVCAR-3 ovarian) was 4.95 µM. It also gave a GI50 (BT-549 breast) of 4.04 µM and a TGI (BT-549 breast) of 18.4 µM.
